The text below walks through data of patent US10246733B2, “Assay and method for quantitating carbonic anhydrase activity and assessing red blood hemolysis” (CASE WESTERN RESERVE UNIVERSITY, priority 2015, dated 2019).

SMILES strings stand for the structures.

One data set deals with hemolysate released CA. Briefly: Stopped-flow out-of-equilibrium CA assay on mouse hemolysate. It is filed as biochemical. An excerpt:
(§1) [drawing 3] causing pH to rise exponentially.
Adult C57/BL6 mice (8 to 16 weeks old) were sacrificed by cervical dislocation and blood was immediately collected by cardiac puncture using a 1-mL syringe (Becton, Dickinson and Co., Franklin Lakes, N.J., USA) with a 23 gauge PrecisionGlide needle (Becton, Dickinson and Co.). Prior to blood collection the syringe and needle were rinsed with 0.9% sodium heparin (H4784, Sigma-Aldrich). The blood was transferred to a 1.5-mL microcentrifuge tube, centrifuged in a Beckman Microfuge 16 Microcentrifuge (Beckman, Brea, Calif.) at 600×g for 10 min and the resulting supernatant and buffy coat were removed. To remove any residual extracellular Hb, the pelleted red blood cells (RBCs) were resuspended—in solution A to a 10% hematocrit (Hct)—and centrifuged at 600×g for 5 minutes. This process was repeated 4×. […]
A solution of isolated Hb was obtained by osmotic lysis of 20 μL of freshly prepared mouse RBCs (see above) in pure H2O (1:8 dilution), followed by centrifugation at 15000×g for 5 minutes in a Beckman Microfuge 16 Microcentrifuge, at RT room temperature. […] The supernatant (cleared of cellular debris) then was removed and transferred to a clean 1.5 mL Eppendorf tube for a The Hb concentration of the supernatant was spectroscopic determination of [Hb] using the visible absorbance spectroscopy as described above. […]

In data set [1] the test system is intact RBCs and hemolysate released CA. Description: Stopped-flow out-of-equilibrium CA assay on mixtures of intact and hemolyzed mouse RBCs. It counts as biochemical.
Text: as §1
Adult C57/BL6 mice (8 to 16 weeks old) were sacrificed by cervical dislocation and blood was immediately collected by cardiac puncture using a 1-mL syringe (Becton, Dickinson and Co., Franklin Lakes, N.J., USA) with a 23 gauge PrecisionGlide needle (Becton, Dickinson and Co.). Prior to blood collection the syringe and needle were rinsed with 0.9% sodium heparin (H4784, Sigma-Aldrich). The blood was transferred to a 1.5-mL microcentrifuge tube, centrifuged in a Beckman Microfuge 16 Microcentrifuge (Beckman, Brea, Calif.) at 600×g for 10 min and the resulting supernatant and buffy coat were removed. To remove any residual extracellular Hb, the pelleted red blood cells (RBCs) were resuspended—in solution A to a 10% hematocrit (Hct)—and centrifuged at 600×g for 5 minutes. This process was repeated 4×. After the final wash the RBCs were resuspended in solution A to a final Hct of ˜20% to ˜30%.
A solution of isolated Hb was obtained by osmotic lysis of 20 μL of freshly prepared mouse RBCs (see above) in pure H2O (1:8 dilution), followed by centrifugation at 15000×g for 5 minutes in a Beckman Microfuge 16 Microcentrifuge, at RT room temperature. This centrifugation step separated the cellular debris from the Hb containing supernatant. The supernatant (cleared of cellular debris) then was removed and transferred to a clean 1.5 mL Eppendorf tube for a The Hb concentration of the supernatant was spectroscopic determination of [Hb] using the visible absorbance spectroscopy as described above.
Simulated degrees of hemolysis (0-up to 100%) were achieved by mixing different proportions of freshly prepared, ostensibly “intact” RBCs and a lysate (representing 100% lysis), while maintaining the total Hb concentration at 5 μM (Table 2). For example, the mixture simulating ostensibly 0% hemolysis contained 5 μM Hb from RBCs. The mixture simulating ostensibly 50% hemolysis contained 2.5 μM Hb from RBCs and 2.5 μM Hb from the lysate supernatant (added to the RBC mixture in a dilution of ˜1:400 to ˜1:4000, depending on the [Hb]). […]

Data set [2] is described as follows: Calibration of pH indicator dye (pK from fluorescence-excitation ratio titration curve). It counts as physicochemical. The note with it: 10° C., five sets of experiments, ± SD. The procedure: We calibrated the pH indicator dye pyranine at 10° C. by mixing in the SF device two identical solutions that were either the pH-7.50 “pH calibration solution for dye” listed in (Table 1), or variants thereof obtained by titrating the pH as outlined in a footnote to (Table 1). For each pH value X, we computed (I460/I415)pHx as described in the previous section. We fitted the following theoretical titration curve to our experimental data:
[formula] which normalizes the data to the value observed at pH 7.5, and forces the function to have a value of unity at this pH.
We used an iterative non-linear least-squares method to determine b and pK. […] The best-fit values were 7.11±0.01 (SD) for the pK, and 1.39±0.01(SD) for b. We used these values of pK and b and the values for ratio of (I460/I415) in each experiment to calculate pH.

For data set [3] the following is noted: cited from earlier work.

With `CC(=O)Nc1nnc(S(N)(=O)=O)s1` [ACZ, acetazolamide], the “krx (rate constant of HCO3- + H+ -> CO2 + H2O reaction) in presence of ACZ” value with hemolysate released CA (10 μM ACZ in syringe opposite to hemolysate (5%-100% relative amount), 10° C., reduced to the uncatalyzed value) is approximately 0.02 s-^1; in data set [1] (10 μM ACZ in syringe opposite to RBCs (5%-100% hemolysis of RBCs), 10° C., reduced to the uncatalyzed value), approximately 0.02 s-^1. Besides, the “time for pHo to reach ~7.5 with ACZ” value (in the data set on hemolysate released CA (ACZ in solution opposite to hemolysate (FIG. 3D)); in data set [1] (ACZ in solution opposite to RBCs (FIG. 4D))) was approximately 200 s in each case. Moreover, the “extracellular CA enzyme activity with ACZ” value in data set [1] (10 μM ACZ in syringe opposite to RBCs) is listed as “totally blocked”.

Regarding `O=S(=O)([O-])c1cc(O)c2ccc3c(S(=O)(=O)[O-])cc(S(=O)(=O)[O-])c4ccc1c2c34.[Na+].[Na+].[Na+]` [pyranine], in data set [2], the “pK (best-fit value)” value is listed as 7.11±0.01. Besides, in data set [3], the “PKa in previous study” value is reported as “around 7.3”.
